Measured values reported in US8178525B2 (priority 2008, dated 2012).
Structures can show the parent of a compound that is named as a salt. Where two headings read alike, the source gives them in different places. Marks after values point to notes of the source that are not given here.

How the values were obtained:
[1] = test system: thrombus formation in rat AV-shunt; assay: Antithrombotic effect in arteriovenous shunt (AV-shunt) model in rats; type: in vivo; conditions: oral 60 min before shunt, dose not given
Procedure: Antithrombotic effect of the oxazolidinone derivatives with cyclic amidoxime or cyclic amidrazone group represented by formula I of the present invention was evaluated using arteriovenous (AV) shunt in rats. Fasted, male Sprague-Dawley rats, weighed 200-240 g and aged approximately 7 weeks, were anesthetized by intraperitoneal injection of urethane (1.25 g/kg) or chloral hydrate. An arteriovenous (AV) shunt in anesthetized rats was performed as described previously, with minor modification [Journal of Thrombosis and Haemostasis (2004) 3, 514]. The left common carotid artery and the right jugular vein were cannulated with two 200-mm-long, saline filled tubes (PE-50, Becton Dickinson, USA). The polyethylene tubes were connected through 8-mm-long silicone tubing (L/S® 13, MasterFlex, USA) with a 50-mm-long silicone tube (L/S® 16, MasterFlex, USA) containing a […]. The compound or vehicle was given orally 60 min before shunt was opened for 15 min. The cotton thread was then withdrawn and weighed. ED50 values were calculated by linear regression analysis using Excel 2003 (Microsoft®.

human FXa = molecular target: T1, human FXa (Homo sapiens, UniProt P00742); assay: Inhibitory activity against purified human FXa, chromogenic substrate S-2765; type: biochemical
T1 construct: purchased Enzyme Research Laboratories
T1 sequence (P00742 235-488 limits assumed): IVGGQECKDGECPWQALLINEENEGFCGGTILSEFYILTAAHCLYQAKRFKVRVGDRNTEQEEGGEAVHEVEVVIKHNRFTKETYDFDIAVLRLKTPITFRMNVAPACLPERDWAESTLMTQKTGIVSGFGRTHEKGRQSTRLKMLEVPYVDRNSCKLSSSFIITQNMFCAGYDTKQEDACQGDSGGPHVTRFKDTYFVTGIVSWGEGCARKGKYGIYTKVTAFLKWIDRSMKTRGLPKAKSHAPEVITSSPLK
T1 sequence (P00742 41-179 partner limits assumed): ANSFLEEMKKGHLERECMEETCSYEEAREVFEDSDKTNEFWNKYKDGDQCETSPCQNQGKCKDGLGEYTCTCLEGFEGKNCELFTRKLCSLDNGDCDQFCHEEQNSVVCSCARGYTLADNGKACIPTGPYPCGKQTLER
Procedure: Human FXa was purchased from Enzyme Research Laboratories. 96-well microplate was purchased from Corning Life Sciences.
Inhibitory activity of the oxazolidinone derivatives with cyclic amidoxime or cyclic amidrazone group represented by formula I of the present invention against FXa was measured as follow.
The reaction was initiated by the addition of the substrate, and the absorbance was monitored continuously at 405 nm for 5 min using SpectraMax 190 (Molecular Devices, USA). The inhibitory constant (Ki) against human FXa was calculated according to the Cheng-Prusoff equation (Ki=IC50/1+[S]/Km), where [S] is the substrate concentration, and Km is the MichalisMenten constant. Km was determined from a Lineweaver-Burk plot. […] IC50 values were calculated using GraFit software version 5.0.12 (Erithacus Software Ltd., UK).

[2] = test system: Citrated human and rat plasma; assay: Prothrombin time (PT), method using coagulometer; type: biochemical; conditions: concentration required to double the plasma clotting times, plasma species not given
Procedure: (§1) Effect of the oxazolidinone derivatives with cyclic amidoxime or cyclic amidrazone group represented by formula I of the present invention on blood coagulation was investigated by measuring prothrombin time (PT).
a) Method using coagulometer: Prothrombin time (PT) was measured with a Thrombotimer 4-channel coagulometer (Behnk Elektronik, Germany). Citrated human and rat plasma were used in the assays. For the PT measurement, 100 uL of freshly thawed plasma was mixed with 3 uL of serial dilution of test compound or DMSO. After 5 min incubation at 37° C., 200 uL of STA-Neoplastine (Diagnostica Stago, France) was added to start clot formation. Anticoagulant activity of the compounds was defined as the concentration required to double the plasma clotting times [2×PT (uM)]. Human plasma was obtained from Daejeon Red Cross Blood Center. […] Blood was collected into plastic tubes containing 1/10 volume of 3.8% sodium citrate. Plasma was obtained by immediate centrifugation at 2500 g for 10 min at 4° C., and stored at −70° C.

citrated plasma = assay: Prothrombin time (PT), method using spectramax; type: biochemical, human and rat; conditions: concentration required to double the plasma clotting times, absorbance 340 nm, plasma species not given
Procedure: as §1
b) Method using spectramax: The compound solution of serial dilution (5 uL) according to the present invention was mixed with citrated plasma (45 uL) followed by addition of STA-Neoplastine (Diagnostica Stago, France) after 5 min at 37° C. Absorbance at 340 nm was continuously monitored and the PT was determined as time (in seconds) when the absorbance at 340 nm reached 0.1. Anticoagulant activity of the compounds was defined as the concentration required to double the plasma clotting times [2×PT (uM)]. Human plasma was obtained from Daejeon Red Cross Blood Center. […] Blood was collected into plastic tubes containing 1/10 volume of 3.8% sodium citrate. Plasma was obtained by immediate centrifugation at 2500 g for 10 min at 4° C., and stored at −70° C.

physchem = type: physicochemical
From the text: Rivaroxaban represented by formula A was used as the comparison drug.

rat tail bleeding time = assay: Bleeding time (BT) in rat tail bleeding model; type: in vivo; conditions: for Prolongation of bleeding time (X-fold): rat tail, po
Procedure: Fasted, male Sprague-Dawley rats, weighed 200-240 g and aged approximately 7 weeks, were anesthetized by intraperitoneal injection of pentobarbital-Na (60 mg/kg). The FXa inhibitors or vehicle was given orally 60 min before the tails of anesthetized rats were transected 2 mm from the tip and vertically immersed in saline at 37° C. The time until continuous blood flow ceased for >30 s was measured, with a maximum observation time of 30 min (longer bleeding time were assigned a value of 30 min).

[3] = values without asterisk (urethane anesthetic)
[4] = purified human FXa 2.6 nM, S-2765 300 uM, pH 7.8, 37° C., Cheng-Prusoff, Km 125 μM, read-out: Ki (nM), inhibition constant against human FXa
[5] = asterisked values (chloral hydrate anesthetic)

CC1=NOCCN1c1ccc(N2C[C@H](CNC(=O)c3ccc(Cl)s3)OC2=O)cc1 [Compound 116]
Inhibition of thrombus formation (%) [1, 3]: 74%
Ki (human FXa; [4]): 23.2 nM
2xPT (uM) Coagulometer [2]: 3.51 µM
2xPT (uM) Spectramax (citrated plasma): 0.71 µM

CCN1CCN(C)N=C1c1ccc(N2C[C@H](CNC(=O)c3ccc(Cl)s3)OC2=O)cc1 [Compound 106]
Ki (human FXa): > 30 nM
2xPT (uM) Spectramax (citrated plasma): 0.33 µM

CC1=NN(c2ccc(N3C[C@H](CNC(=O)c4ccc(Cl)s4)OC3=O)cc2)CCN1 [Compound 110]
Inhibition of thrombus formation (%) [1, 5]: 45* %
Ki (human FXa; [4]): 2.07 nM
2xPT (uM) Coagulometer [2]: 0.31 µM

CN1CCON=C1c1ccc(N2C[C@H](CNC(=O)c3ccc(Cl)s3)OC2=O)cc1 [100 (HCl salt)]
solubility (physchem; water, read-out: Aqueous Solubility): 12 mM
Prolongation of bleeding time (X-fold) (rat tail bleeding time; dose 5 mg/kg): 1.2 X-fold
Prolongation of bleeding time (X-fold) (rat tail bleeding time; dose 10 mg/kg): 0.9 X-fold

CN1C=NN(c2ccc(N3C[C@H](CNC(=O)c4ccc(Cl)s4)OC3=O)cc2)CC1 [Compound 112]
Inhibition of thrombus formation (%) [1, 5]: 44* %
Ki (human FXa; [4]): 120 nM
2xPT (uM) Coagulometer [2]: 4.26 µM

CCC1=NN(c2ccc(N3C[C@H](CNC(=O)c4ccc(Cl)s4)OC3=O)cc2)CCN1 [Compound 111]
Inhibition of thrombus formation (%) [1, 5]: 17* %
Ki (human FXa; [4]): 18.9 nM
2xPT (uM) Coagulometer [2]: 0.40 µM

CCN1OCCN=C1c1ccc(N2C[C@H](CNC(=O)c3ccc(Cl)s3)OC2=O)cc1 [Compound 105]
Inhibition of thrombus formation (%) [1, 3]: 80%
Ki (human FXa; [4]): 3.62 nM
2xPT (uM) Coagulometer [2]: 0.16 µM
2xPT (uM) Spectramax (citrated plasma): 0.04 µM

CN1OCCN=C1c1ccc(N2C[C@H](CNC(=O)c3ccc(Cl)s3)OC2=O)cc1 [Compound 104]
Inhibition of thrombus formation (%) [1, 3]: 21%
Ki (human FXa; [4]): 10 nM
2xPT (uM) Spectramax (citrated plasma): 0.05 µM

O=C(NC[C@H]1CN(c2ccc(N3CCON=C3C3CC3)cc2)C(=O)O1)c1ccc(Cl)s1 [Compound 117]
Ki (human FXa; [4]): 101 nM
2xPT (uM) Spectramax (citrated plasma): 2.2 µM

CN1CCON=C1c1ccc(N2C[C@H](CNC(=O)c3ccc(Cl)s3)OC2=O)cc1 [Compound 100]
Inhibition of thrombus formation (%) [1, 5]: 58%
Inhibition of thrombus formation (%) [1, 3]: 65%
Ki (human FXa): 7.11 nM
prolongation of bleeding time compared to the vehicle control (rat tail bleeding time; rat tail bleeding model, 10 mg/kg): did not prolonged bleeding time
Prolongation of bleeding time (X-fold) (rat tail bleeding time; dose 5 mg/kg): 0.9 X-fold
2xPT (uM) Coagulometer [2]: 0.69 ± 0.07 µM
2xPT (uM) Spectramax (citrated plasma): 0.25 µM

O=C(NC[C@H]1CN(c2ccc(N3CCNC=N3)cc2)C(=O)O1)c1ccc(Cl)s1 [Compound 109]
Inhibition of thrombus formation (%) [1, 5]: 73%
Inhibition of thrombus formation (%) [1, 3]: 78%
Ki (human FXa): 4.37 nM
Prolongation of bleeding time (X-fold) (rat tail bleeding time; dose 2.5 mg/kg): 2.5 X-fold
Prolongation of bleeding time (X-fold) (rat tail bleeding time; dose 5 mg/kg): 4.0 X-fold
Prolongation of bleeding time (X-fold) (rat tail bleeding time; dose 10 mg/kg): 4.1 X-fold
2xPT (uM) Coagulometer [2]: 0.44 µM
2xPT (uM) Spectramax (citrated plasma): 0.21 µM

CCN1CCON=C1c1ccc(N2C[C@H](CNC(=O)c3ccc(Cl)s3)OC2=O)cc1 [Compound 102]
Inhibition of thrombus formation (%) [1, 3]: 61%
Ki (human FXa): 8.91 nM
2xPT (uM) Coagulometer [2]: 1.76 µM
2xPT (uM) Spectramax (citrated plasma): 0.77 µM

O=C(NC[C@H]1CN(c2ccc(C3=NCCN4C(=O)CCN34)cc2)C(=O)O1)c1ccc(Cl)s1 [Compound 108]
Inhibition of thrombus formation (%) [1, 3]: 52%
Ki (human FXa): 15.8 nM
2xPT (uM) Coagulometer [2]: 1.00 µM
2xPT (uM) Spectramax (citrated plasma): 0.35 µM

CN1C=NCCN1c1ccc(N2C[C@H](CNC(=O)c3ccc(Cl)s3)OC2=O)cc1 [Compound 114]
Inhibition of thrombus formation (%) [1, 5]: 5* %
Ki (human FXa; [4]): 2.86 nM
2xPT (uM) Coagulometer [2]: 0.50 µM

O=C(NC[C@H]1CN(c2ccc(C3=NOCCN3)cc2)C(=O)O1)c1ccc(Cl)s1 [Compound 101]
Inhibition of thrombus formation (%) [1, 3]: 45%
Ki (human FXa): 110 nM
2xPT (uM) Spectramax (citrated plasma): 1.39 µM

CN1CCON=C1c1ccc(N2C[C@H](CNC(=O)c3ccc(Cl)s3)OC2=O)cc1 [100 (MSA salt)]
Aqueous Solubility (physchem): >20 mM
Prolongation of bleeding time (X-fold) (rat tail bleeding time; dose 5 mg/kg): 1.1 X-fold
Prolongation of bleeding time (X-fold) (rat tail bleeding time; dose 10 mg/kg): 1.8 X-fold
Prolongation of bleeding time (X-fold) (rat tail bleeding time; dose 20 mg/kg): 5.1 X-fold

O=C(NC[C@H]1CN(c2ccc(N3CCNC=N3)cc2)C(=O)O1)c1ccc(Cl)s1 [Compound 109-HCl]
Aqueous Solubility (physchem): 6 mM

CC1=NN(C)CCN1c1ccc(N2C[C@H](CNC(=O)c3ccc(Cl)s3)OC2=O)cc1 [Compound 121]
Inhibition of thrombus formation (%) [1, 3]: 51%
Ki (human FXa; [4]): 95.6 nM
2xPT (uM) Coagulometer [2]: 2.90 µM
2xPT (uM) Spectramax (citrated plasma): 0.54 µM

O=CN1CCN(c2ccc(N3C[C@H](CNC(=O)c4ccc(Cl)s4)OC3=O)cc2)C=N1 [Compound 118]
Inhibition of thrombus formation (%) [1, 3]: 74%
Ki (human FXa; [4]): 132 nM
2xPT (uM) Coagulometer [2]: 9.38 µM
2xPT (uM) Spectramax (citrated plasma): 4.88 µM

O=C(NC[C@H]1CN(c2ccc(N3C=NOCC3)cc2)C(=O)O1)c1ccc(Cl)s1 [Compound 115]
Inhibition of thrombus formation (%) [1, 3]: 29%
Ki (human FXa; [4]): 84 nM
2xPT (uM) Spectramax (citrated plasma): 1.49 µM

CC1=NN(c2ccc(N3C[C@H](CNC(=O)c4ccc(Cl)s4)OC3=O)cc2)CCN1C [Compound 113]
Inhibition of thrombus formation (%) [1, 5]: 12* %
Ki (human FXa; [4]): 29.3 nM
2xPT (uM) Coagulometer [2]: 0.62 µM

O=C(NC[C@H]1CN(c2ccc(C3=NOCCN3C3CC3)cc2)C(=O)O1)c1ccc(Cl)s1 [Compound 103]
Inhibition of thrombus formation (%) [1, 3]: 24%
Ki (human FXa): 53.3 nM
2xPT (uM) Spectramax (citrated plasma): 1.10 µM

O=C(NC[C@H]1CN(c2ccc(N3CCNC=N3)cc2)C(=O)O1)c1ccc(Cl)s1 [109 (MSA salt)]
Aqueous Solubility (physchem): >20 mM
Prolongation of bleeding time (X-fold) (rat tail bleeding time; dose 2.5 mg/kg): 2.1 X-fold
Prolongation of bleeding time (X-fold) (rat tail bleeding time; dose 5 mg/kg): 3.8 X-fold
Prolongation of bleeding time (X-fold) (rat tail bleeding time; dose 10 mg/kg): 5.7 X-fold
